Key:
Assay type in all cases: cell-based
[1] = molecular target: T1, IAP-Estrogen receptor (Homo sapiens) (UniProt P03372+P98170+Q13490); test: SNIPER activity at IAP/ERalpha in human MCF7 cells assessed as induction of ERalpha protein degradation by measuring ERalpha protein level at 10 uM incubated for 24 hrs by western blot analysis relative to lamin B
[2] = molecular target: T2, Baculoviral IAP repeat-containing protein 2/E3 ubiquitin-protein ligase XIAP/Aryl hydrocarbon receptor (Homo sapiens, UniProt P35869+P98170+Q13490); test: SNIPER activity at IAP/AhR in human MCF7 cells assessed as induction of AhR protein degradation by measuring AhR protein level at 10 uM incubated for 24 hrs by western blot analysis relative to lamin B; details: mcf7, 24 h
T2 sequence (P35869 whole entry): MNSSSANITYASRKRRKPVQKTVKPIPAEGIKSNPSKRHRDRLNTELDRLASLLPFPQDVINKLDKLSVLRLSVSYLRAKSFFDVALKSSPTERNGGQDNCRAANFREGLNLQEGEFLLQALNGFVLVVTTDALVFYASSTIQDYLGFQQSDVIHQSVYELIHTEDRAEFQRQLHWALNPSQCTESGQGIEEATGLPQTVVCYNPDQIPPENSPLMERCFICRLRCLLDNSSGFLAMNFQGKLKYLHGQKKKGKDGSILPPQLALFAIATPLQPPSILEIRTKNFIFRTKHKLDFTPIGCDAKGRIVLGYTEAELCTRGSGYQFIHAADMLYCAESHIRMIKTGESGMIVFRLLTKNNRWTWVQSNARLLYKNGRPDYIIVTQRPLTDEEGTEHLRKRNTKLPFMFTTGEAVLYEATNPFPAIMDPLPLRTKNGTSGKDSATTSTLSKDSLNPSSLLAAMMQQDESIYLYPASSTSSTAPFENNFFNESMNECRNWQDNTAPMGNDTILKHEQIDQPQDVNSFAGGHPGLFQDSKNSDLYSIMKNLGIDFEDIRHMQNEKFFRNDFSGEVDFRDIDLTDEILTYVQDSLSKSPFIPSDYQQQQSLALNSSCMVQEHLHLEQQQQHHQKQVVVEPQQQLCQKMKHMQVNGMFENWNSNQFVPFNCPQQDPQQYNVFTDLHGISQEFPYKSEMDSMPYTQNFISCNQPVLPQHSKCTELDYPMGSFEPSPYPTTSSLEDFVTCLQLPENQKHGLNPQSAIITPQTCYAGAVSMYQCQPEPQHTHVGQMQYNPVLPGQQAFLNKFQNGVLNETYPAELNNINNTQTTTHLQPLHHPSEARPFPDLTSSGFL
T2 sequence (P98170 whole entry): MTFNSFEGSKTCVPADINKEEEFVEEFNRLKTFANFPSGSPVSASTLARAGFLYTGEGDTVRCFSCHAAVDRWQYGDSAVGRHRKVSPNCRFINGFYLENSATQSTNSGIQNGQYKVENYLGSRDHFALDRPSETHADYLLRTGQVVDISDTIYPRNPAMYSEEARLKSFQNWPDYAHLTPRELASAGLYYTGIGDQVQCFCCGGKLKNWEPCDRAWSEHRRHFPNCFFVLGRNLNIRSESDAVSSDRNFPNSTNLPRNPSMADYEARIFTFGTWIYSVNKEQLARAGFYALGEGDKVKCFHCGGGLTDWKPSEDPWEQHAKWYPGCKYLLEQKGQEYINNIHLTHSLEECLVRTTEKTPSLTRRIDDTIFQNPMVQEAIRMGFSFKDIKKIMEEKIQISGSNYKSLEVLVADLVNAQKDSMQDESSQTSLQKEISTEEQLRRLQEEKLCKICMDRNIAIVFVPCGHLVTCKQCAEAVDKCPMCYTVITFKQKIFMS
T2 sequence (Q13490 whole entry): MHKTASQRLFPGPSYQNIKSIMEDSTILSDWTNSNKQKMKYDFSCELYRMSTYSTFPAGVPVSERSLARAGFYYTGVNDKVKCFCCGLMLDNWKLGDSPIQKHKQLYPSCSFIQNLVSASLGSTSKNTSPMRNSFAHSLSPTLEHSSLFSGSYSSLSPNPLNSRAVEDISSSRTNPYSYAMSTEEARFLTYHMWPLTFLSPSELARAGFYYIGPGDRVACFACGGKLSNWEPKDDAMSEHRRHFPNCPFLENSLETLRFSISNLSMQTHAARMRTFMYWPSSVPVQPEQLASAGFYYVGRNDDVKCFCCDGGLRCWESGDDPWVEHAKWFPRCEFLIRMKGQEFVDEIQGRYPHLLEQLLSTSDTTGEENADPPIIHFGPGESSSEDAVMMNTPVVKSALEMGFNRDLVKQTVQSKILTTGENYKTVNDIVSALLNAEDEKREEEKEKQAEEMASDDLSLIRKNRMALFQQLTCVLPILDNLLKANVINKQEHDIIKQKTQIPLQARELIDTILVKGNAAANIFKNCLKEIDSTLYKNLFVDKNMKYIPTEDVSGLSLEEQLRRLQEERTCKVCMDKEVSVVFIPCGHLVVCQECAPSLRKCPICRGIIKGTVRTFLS

[3] = molecular target: T1, IAP-Estrogen receptor (Homo sapiens); test: SNIPER activity at IAP/ERalpha in human MCF7 cells assessed as induction of ERalpha protein degradation by measuring ERalpha protein level at 20 uM incubated for 8 hrs in presence of ubiquitin activating inhibitor MLN7243 by western blot analysis relative to lamin B
[4] = molecular target: T3, IAP/Androgen receptor (Homo sapiens) (UniProt P10275+P98170+Q13490); test: SNIPER activity at IAP/AR in human MCF7 cells assessed as induction of AR protein degradation by measuring AR protein level at 20 uM incubated for 24 hrs by western blot analysis relative to lamin B
[5] = molecular target: T1, IAP-Estrogen receptor (Homo sapiens); test: SNIPER activity at IAP/ERalpha in human MCF7 cells assessed as induction of ERalpha protein degradation by measuring ERalpha protein level at 10 uM incubated for 8 hrs by western blot analysis relative to lamin B
[6] = molecular target: T3, IAP/Androgen receptor (Homo sapiens); test: SNIPER activity at IAP/AR in human MCF7 cells assessed as induction of AR protein degradation by measuring AR protein level at 10 uM incubated for 24 hrs by western blot analysis relative to lamin B
[7] = molecular target: T2, Baculoviral IAP repeat-containing protein 2/E3 ubiquitin-protein ligase XIAP/Aryl hydrocarbon receptor; test: SNIPER activity at IAP/AhR in human MCF7 cells assessed as induction of AhR protein degradation by measuring AhR protein level at 20 uM incubated for 8 hrs in presence of proteasome inhibitor, MG132 by western blot analysis relative to lamin B; details: mcf7, 8 h
[8] = molecular target: T1, IAP-Estrogen receptor (Homo sapiens); test: SNIPER activity at IAP/ERalpha in human MCF7 cells assessed as induction of ERalpha protein degradation by measuring ERalpha protein level at 20 uM incubated for 24 hrs by western blot analysis relative to lamin B
[9] = molecular target: T3, IAP/Androgen receptor (Homo sapiens); test: SNIPER activity at IAP/AR in human MCF7 cells assessed as induction of AR protein degradation by measuring AR protein level at 5 uM incubated for 24 hrs by western blot analysis relative to lamin B
[10] = molecular target: T2, Baculoviral IAP repeat-containing protein 2/E3 ubiquitin-protein ligase XIAP/Aryl hydrocarbon receptor; test: SNIPER activity at IAP/AhR in human MCF7 cells assessed as induction of AhR protein degradation by measuring AhR protein level at 20 uM incubated for 8 hrs in presence of ubiquitin activating inhibitor MLN7243 by western blot analysis relative to lamin B; details: mcf7, 8 h
[11] = molecular target: T2, Baculoviral IAP repeat-containing protein 2/E3 ubiquitin-protein ligase XIAP/Aryl hydrocarbon receptor; test: SNIPER activity at IAP/AhR in human MCF7 cells assessed as induction of AhR protein degradation by measuring AhR protein level at 20 uM incubated for 8 hrs by western blot analysis relative to lamin B; details: mcf7, 8 h
[12] = molecular target: T1, IAP-Estrogen receptor (Homo sapiens); test: SNIPER activity at IAP/ERalpha in human MCF7 cells assessed as induction of ERalpha protein degradation by measuring ERalpha protein level at 5 uM incubated for 24 hrs by western blot analysis relative to lamin B
[13] = molecular target: T1, IAP-Estrogen receptor (Homo sapiens); test: SNIPER activity at IAP/ERalpha in human MCF7 cells assessed as induction of ERalpha protein degradation by measuring ERalpha protein level at 5 uM incubated for 8 hrs by western blot analysis relative to lamin B
[14] = molecular target: T3, IAP/Androgen receptor (Homo sapiens); test: SNIPER activity at IAP/AR in human MCF7 cells assessed as induction of AR protein degradation by measuring AR protein level at 20 uM incubated for 8 hrs by western blot analysis relative to lamin B
[15] = molecular target: T3, IAP/Androgen receptor (Homo sapiens); test: SNIPER activity at IAP/AR in human MCF7 cells assessed as induction of AR protein degradation by measuring AR protein level at 20 uM incubated for 8 hrs in presence of ubiquitin activating inhibitor MLN7243 by western blot analysis relative to lamin B
[16] = molecular target: T2, Baculoviral IAP repeat-containing protein 2/E3 ubiquitin-protein ligase XIAP/Aryl hydrocarbon receptor; test: SNIPER activity at IAP/AhR in human MCF7 cells assessed as induction of AhR protein degradation by measuring AhR protein level at 20 uM incubated for 24 hrs by western blot analysis relative to lamin B; details: mcf7, 24 h
[17] = molecular target: T1, IAP-Estrogen receptor (Homo sapiens); test: SNIPER activity at IAP/ERalpha in human MCF7 cells assessed as induction of ERalpha protein degradation by measuring ERalpha protein level at 20 uM incubated for 8 hrs in presence of proteasome inhibitor, MG132 by western blot analysis relative to lamin B
[18] = molecular target: T2, Baculoviral IAP repeat-containing protein 2/E3 ubiquitin-protein ligase XIAP/Aryl hydrocarbon receptor; test: SNIPER activity at IAP/AhR in human MCF7 cells assessed as induction of AhR protein degradation by measuring AhR protein level at 5 uM incubated for 24 hrs by western blot analysis relative to lamin B; details: mcf7, 24 h
[19] = molecular target: T3, IAP/Androgen receptor (Homo sapiens); test: SNIPER activity at IAP/AR in human MCF7 cells assessed as induction of AR protein degradation by measuring AR protein level at 20 uM incubated for 8 hrs in presence of proteasome inhibitor, MG132 by western blot analysis relative to lamin B
[20] = molecular target: T1, IAP-Estrogen receptor (Homo sapiens); test: SNIPER activity at IAP/ERalpha in human MCF7 cells assessed as induction of ERalpha protein degradation incubated for 8 to 24 hrs by western blot analysis; details: time hrs 8-24
[21] = molecular target: T3, IAP/Androgen receptor (Homo sapiens); test: SNIPER activity at IAP/AR in human MCF7 cells assessed as induction of AR protein degradation incubated for 8 to 24 hrs by western blot analysis; details: time hrs 8-24
[22] = molecular target: T3, IAP/Androgen receptor (Homo sapiens); test: SNIPER activity at IAP/AR in human MCF7 cells assessed as induction of AR protein degradation by measuring AR protein level at 10 uM incubated for 8 hrs by western blot analysis relative to lamin B
[23] = molecular target: T3, IAP/Androgen receptor (Homo sapiens); test: SNIPER activity at IAP/AR in human MCF7 cells assessed as induction of AR protein degradation by measuring AR protein level at 5 uM incubated for 8 hrs by western blot analysis relative to lamin B
[24] = molecular target: T2, Baculoviral IAP repeat-containing protein 2/E3 ubiquitin-protein ligase XIAP/Aryl hydrocarbon receptor; test: SNIPER activity at IAP/AhR in human MCF7 cells assessed as induction of AhR protein degradation by measuring AhR protein level at 5 uM incubated for 8 hrs by western blot analysis relative to lamin B; details: mcf7, 8 h
[25] = molecular target: T1, IAP-Estrogen receptor (Homo sapiens); test: SNIPER activity at IAP/ERalpha in human MCF7 cells assessed as induction of ERalpha protein degradation by measuring ERalpha protein level at 20 uM incubated for 8 hrs by western blot analysis relative to lamin B
[26] = molecular target: T2, Baculoviral IAP repeat-containing protein 2/E3 ubiquitin-protein ligase XIAP/Aryl hydrocarbon receptor; test: SNIPER activity at IAP/AhR in human MCF7 cells assessed as induction of AhR protein degradation by measuring AhR protein level at 10 uM incubated for 8 hrs by western blot analysis relative to lamin B; details: mcf7, 8 h
[27] = molecular target: T1, IAP-Estrogen receptor (Homo sapiens); test: SNIPER activity at IAP/ERalpha in XIAP siRNA-transfected human MCF7 cells assessed as induction of ERalpha protein degradation by measuring ERalpha protein level at 20 uM incubated for 8 hrs by western blot analysis relative to lamin B
[28] = molecular target: T3, IAP/Androgen receptor (Homo sapiens); test: SNIPER activity at IAP/AR in cIAP1 siRNA-transfected human MCF7 cells assessed as induction of AR protein degradation by measuring AR protein level at 20 uM incubated for 8 hrs by western blot analysis relative to lamin B
[29] = molecular target: T1, IAP-Estrogen receptor (Homo sapiens); test: SNIPER activity at IAP/ERalpha in XIAP/cIAP1 siRNA-transfected human MCF7 cells assessed as induction of ERalpha protein degradation by measuring ERalpha protein level at 20 uM incubated for 8 hrs by western blot analysis relative to lamin B
[30] = molecular target: T3, IAP/Androgen receptor (Homo sapiens); test: SNIPER activity at IAP/AR in XIAP/cIAP1 siRNA-transfected human MCF7 cells assessed as induction of AR protein degradation by measuring AR protein level at 20 uM incubated for 8 hrs by western blot analysis relative to lamin B
[31] = molecular target: T3, IAP/Androgen receptor (Homo sapiens); test: SNIPER activity at IAP/AR in XIAP siRNA-transfected human MCF7 cells assessed as induction of AR protein degradation by measuring AR protein level at 20 uM incubated for 8 hrs by western blot analysis relative to lamin B
[32] = molecular target: T1, IAP-Estrogen receptor (Homo sapiens); test: SNIPER activity at IAP/ERalpha in cIAP1 siRNA-transfected human MCF7 cells assessed as induction of ERalpha protein degradation by measuring ERalpha protein level at 20 uM incubated for 8 hrs by western blot analysis relative to lamin B

T1 sequence (P03372 whole entry, looked up): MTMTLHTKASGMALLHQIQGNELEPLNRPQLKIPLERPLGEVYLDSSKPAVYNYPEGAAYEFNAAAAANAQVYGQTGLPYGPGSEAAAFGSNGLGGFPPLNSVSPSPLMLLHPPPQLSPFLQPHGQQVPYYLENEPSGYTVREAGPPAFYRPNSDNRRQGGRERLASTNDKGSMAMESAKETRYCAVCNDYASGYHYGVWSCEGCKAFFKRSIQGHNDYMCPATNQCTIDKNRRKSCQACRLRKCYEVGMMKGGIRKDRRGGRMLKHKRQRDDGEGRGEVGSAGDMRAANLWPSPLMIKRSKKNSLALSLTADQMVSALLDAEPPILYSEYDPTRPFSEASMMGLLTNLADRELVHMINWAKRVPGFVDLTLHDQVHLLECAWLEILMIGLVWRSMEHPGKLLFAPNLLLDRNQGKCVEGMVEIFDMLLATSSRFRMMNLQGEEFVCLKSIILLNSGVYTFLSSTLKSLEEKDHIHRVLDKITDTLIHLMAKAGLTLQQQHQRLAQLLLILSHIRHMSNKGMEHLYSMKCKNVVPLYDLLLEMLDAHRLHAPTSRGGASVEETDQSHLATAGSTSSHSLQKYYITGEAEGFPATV
T1 sequence (P98170 whole entry, looked up): as the sequence (P98170 whole entry) above
T1 sequence (Q13490 whole entry, looked up): as the sequence (Q13490 whole entry) above

Row | Activity [1] [%] | Activity [2] [%] | Activity [3] [%] | Activity [4] [%] | Activity [5] [%] | Activity [6] [%] | Activity [7] [%] | Activity [8] [%] | Activity [9] [%] | Activity [10] [%] | Activity [11] [%] | Activity [12] [%] | Activity [13] [%] | Activity [14] [%] | Activity [15] [%] | Activity [16] [%] | Activity [17] [%] | Activity [18] [%] | Activity [19] [%] | Activity [20] | SMILES | other results
1 | 75 | 189 | 119 | 57 | 66 | 152 | 91 | 34 | 97 | 107 | 82 | 79 | 84 | 35 | 110 | 125 | 88 | 97 | 90 | Dose-dependent effect | CC[C@H](C)[C@@H]1NC(=O)[C@H](NC(=O)[C@@H](N)CCCCNC(=O)COCCOCCNC(=O)COCCOCCNC(=O)[C@@H](NC(=O)[C@@H]2CCCN2C(=O)[C@@H](NC(=O)[C@H](C)NC)C2CCCCC2)C(c2ccccc2)c2ccccc2)CSSC[C@@H](C(=O)N[C@@H](CCCNC(=N)N)C(=O)N[C@@H](CC(C)(C)C)C(=O)N[C@@H](CC(C)C)C(=O)N[C@@H](CCC(N)=O)C(=O)NCC(=O)NCC(=O)NCC(=O)N[C@@H](CCCNC(=N)N)C(=O)N[C@@H](CCCNC(=N)N)C(=O)N[C@@H](CCCNC(=N)N)C(=O)N[C@@H](CCCNC(=N)N)C(=O)N[C@@H](CCCNC(=N)N)C(=O)N[C@@H](CCCNC(=N)N)C(=O)N[C@@H](CCCNC(=N)N)C(N)=O)NC(=O)[C@H](CC(C)C)NC1=O | Activity [21]: Dose-dependent effect; Activity [22]: 56%; Activity [23]: 80%; Activity [24]: 119%; Activity [25]: 48%; Activity [26]: 129%
2 | 76 | 165 | 122 | 59 | 68 | 137 | 90 | 35 | 99 | 110 | 80 | 81 | 84 | 36 | 117 | 103 | 94 | 100 | 95 | Dose-dependent effect | CC[C@H](C)[C@@H]1NC(=O)[C@H](NC(=O)[C@@H](N)CCCCNC(=O)COCCOCCNC(=O)COCCOCCOc2cccc(C(=O)c3csc([C@@H]4CCCN4C(=O)[C@@H](NC(=O)[C@H](C)NC)C4CCCCC4)n3)c2)CSSC[C@@H](C(=O)N[C@@H](CCCNC(=N)N)C(=O)N[C@@H](CC(C)(C)C)C(=O)N[C@@H](CC(C)C)C(=O)N[C@@H](CCC(N)=O)C(=O)NCC(=O)NCC(=O)NCC(=O)N[C@@H](CCCNC(=N)N)C(=O)N[C@@H](CCCNC(=N)N)C(=O)N[C@@H](CCCNC(=N)N)C(=O)N[C@@H](CCCNC(=N)N)C(=O)N[C@@H](CCCNC(=N)N)C(=O)N[C@@H](CCCNC(=N)N)C(=O)N[C@@H](CCCNC(=N)N)C(N)=O)NC(=O)[C@H](CC(C)C)NC1=O | Activity [27]: 62%; Activity [28]: 78%; Activity [29]: 55%; Activity [30]: 59%; Activity [31]: 57%; Activity [32]: 50%; Activity [21]: Dose-dependent effect; Activity [22]: 63%; Activity [23]: 81%; Activity [24]: 111%; Activity [25]: 46%; Activity [26]: 128%

Reference: ChEMBL document CHEMBL4725279, “Design and synthesis of peptide-based chimeric molecules to induce degradation of the estrogen and androgen receptors” (Bioorg Med Chem, 2020)
